# According to US9302999B2, “Substituted triazoles as herbicides” (E. I. DU PONT DE NEMOURS AND COMPANY, priority 2012, dated 2016):
# How the values were obtained:
# Format in all cases: in vivo
# [1] = tested on: johnsongrass (Sorghum halepense); experiment: Test C pre-/postemergence: johnsongrass
# Summary of the method: (§1)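 Visual injury scored 0–100 (100 = complete control) against untreated controls after 13–15 greenhouse days. Surfactant-containing solvent formulations applied either to soil after sowing (loam/sand) or over 1- to 4-leaf plants, 2–18 cm tall.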
# [2] = tested on: galium (catchweed bedstraw, Galium aparine); experiment: Test C pre-/postemergence: galium
# Summary of the method: as §1
# [3] = tested on: velvetleaf (Abutilon theophrasti); experiment: Test C pre-/postemergence: velvetleaf
# Summary of the method: as §1
# [4] = tested on: large crabgrass (Digitaria sanguinalis); experiment: Test C pre-/postemergence: large crabgrass
# Summary of the method: as §1
# [5] = tested on: foxtail, giant (giant foxtail, Setaria faberii); experiment: Test C pre-/postemergence: foxtail, giant
# Summary of the method: as §1
# [6] = tested on: kochia (Kochia scoparia); experiment: Test C pre-/postemergence: kochia
# Summary of the method: as §1
# [7] = tested on: corn (Zea mays); experiment: Test C pre-/postemergence: corn
# Summary of the method: as §1
# [8] = tested on: wild oat (Avena fatua); experiment: Test C pre-/postemergence: wild oat
# Summary of the method: as §1
# [9] = tested on: ducksalad (Heteranthera limosa); experiment: Test B flooded paddy: ducksalad; conditions: Flood; 250 g ai/ha; applied to paddy water at 2-leaf stage; visually evaluated after 13 to 15 days
# Summary of the method: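 Visual ratings (0 = no effect, 100 = complete control) versus untreated controls were taken 13–15 days after treatment of greenhouse plants. Treatment was added to paddy water held at 3 cm depth on 2-leaf-stage seedlings.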
# [10] = tested on: ryegrass, Italian (Italian ryegrass, Lolium multiflorum); experiment: Test C pre-/postemergence: ryegrass, Italian
# Summary of the method: as §1
# [11] = Postemergence, 31 g ai/ha, scale 0 to 100 (0 no effect, 100 complete control)
# [12] = Postemergence, 62 g ai/ha, scale 0 to 100 (0 no effect, 100 complete control)
# [13] = Postemergence, 125 g ai/ha, scale 0 to 100, 0 no effect, 100 complete control
# [14] = Postemergence, 250 g ai/ha, scale 0 to 100
# [15] = Preemergence, 31 g ai/ha, scale of 0 to 100, 0 is no effect, 100 is complete control
# [16] = Preemergence, 62 g ai/ha, scale of 0 to 100, 0 is no effect, 100 is complete control
# [17] = Preemergence, 125 g ai/ha, scale 0 to 100, 0 no effect, 100 complete control
# [18] = Preemergence, 250 g ai/ha, scale 0 to 100, 0 no effect, 100 complete control
smiles,measurement,setting,value
FC(F)Oc1nn(-c2ccc(C(F)(F)F)cc2)nc1Cc1ccnc(C(F)(F)F)c1 [Compound 26],"Plant response rating, Johnsongrass",[1]; [11],15
same,"Plant response rating, Johnsongrass",[1]; [12],15
same,"Plant response rating, Johnsongrass",[1]; [13],25
same,"Plant response rating, Johnsongrass",[1]; [14],40
same,"Plant response rating, Johnsongrass",[1]; [15],15
same,"Plant response rating, Johnsongrass",[1]; [16],55
same,"Plant response rating, Johnsongrass",[1]; [17],95
same,"Plant response rating, Johnsongrass",[1]; [18],98
same,"Plant response rating, Galium",[2]; [11],50
same,"Plant response rating, Galium",[2]; [12],55
same,"Plant response rating, Galium",[2]; [13],75
same,"Plant response rating, Galium",[2]; [14],75
same,"Plant response rating, Galium",[2]; [15],50
same,"Plant response rating, Galium",[2]; [16],75
same,"Plant response rating, Galium",[2]; [17],100
same,"Plant response rating, Galium",[2]; [18],100
same,"Plant response rating, Velvetleaf",[3]; [11],25
same,"Plant response rating, Velvetleaf",[3]; [12],50
same,"Plant response rating, Velvetleaf",[3]; [13],55
same,"Plant response rating, Velvetleaf",[3]; [14],85
same,"Plant response rating, Velvetleaf",[3]; [15],25
same,"Plant response rating, Velvetleaf",[3]; [16],35
same,"Plant response rating, Velvetleaf",[3]; [17],75
same,"Plant response rating, Velvetleaf",[3]; [18],100
same,"Plant response rating, Crabgrass, Large",[4]; [11],20
same,"Plant response rating, Crabgrass, Large",[4]; [12],30
same,"Plant response rating, Crabgrass, Large",[4]; [13],40
same,"Plant response rating, Crabgrass, Large",[4]; [14],40
same,"Plant response rating, Crabgrass, Large",[4]; [15],98
same,"Plant response rating, Crabgrass, Large",[4]; [16],98
same,"Plant response rating, Crabgrass, Large",[4]; [17],100
same,"Plant response rating, Crabgrass, Large",[4]; [18],100
same,"Plant response rating, Foxtail, Giant",[5]; [11],25
same,"Plant response rating, Foxtail, Giant",[5]; [12],30
same,"Plant response rating, Foxtail, Giant",[5]; [13],45
same,"Plant response rating, Foxtail, Giant",[5]; [14],60
same,"Plant response rating, Foxtail, Giant",[5]; [15],98
same,"Plant response rating, Foxtail, Giant",[5]; [16],100
same,"Plant response rating, Foxtail, Giant",[5]; [17],100
same,"Plant response rating, Foxtail, Giant",[5]; [18],100
same,"Plant response rating, Kochia",[6]; [11],75
same,"Plant response rating, Kochia",[6]; [12],95
same,"Plant response rating, Kochia",[6]; [13],95
same,"Plant response rating, Kochia",[6]; [14],98
same,"Plant response rating, Kochia",[6]; [15],45
same,"Plant response rating, Kochia",[6]; [16],95
same,"Plant response rating, Kochia",[6]; [17],95
same,"Plant response rating, Kochia",[6]; [18],98
same,"Plant response rating, Corn",[7]; [11],20
same,"Plant response rating, Corn",[7]; [12],20
same,"Plant response rating, Corn",[7]; [13],20
same,"Plant response rating, Corn",[7]; [14],25
same,"Plant response rating, Corn",[7]; [15],0
same,"Plant response rating, Corn","[7]; Preemergence, 62 g ai/ha, scale 0 to 100, 0 no effect, 100 complete control",5
same,"Plant response rating, Corn",[7]; [17],5
same,"Plant response rating, Corn",[7]; [18],5
same,"Plant response rating, Oat, Wild",[8]; [11],10
same,"Plant response rating, Oat, Wild",[8]; [12],30
same,"Plant response rating, Oat, Wild",[8]; [13],40
same,"Plant response rating, Oat, Wild",[8]; [14],85
same,"Plant response rating, Oat, Wild",[8]; [15],45
same,"Plant response rating, Oat, Wild",[8]; [16],70
same,"Plant response rating, Oat, Wild",[8]; [17],70
same,"Plant response rating, Oat, Wild",[8]; [18],95
same,"Plant response rating, Ducksalad (0 to 100 scale, 0 is no effect, 100 is complete control)",[9],40
same,"Plant response rating, Ryegrass, Italian",[10]; [11],10
same,"Plant response rating, Ryegrass, Italian",[10]; [12],20
same,"Plant response rating, Ryegrass, Italian",[10]; [13],30
same,"Plant response rating, Ryegrass, Italian",[10]; [14],35
same,"Plant response rating, Ryegrass, Italian",[10]; [15],10
same,"Plant response rating, Ryegrass, Italian",[10]; [16],60
same,"Plant response rating, Ryegrass, Italian",[10]; [17],60
same,"Plant response rating, Ryegrass, Italian",[10]; [18],80
FC(F)(F)c1ccc(-n2nc(Cl)c(Cc3ccnc(C(F)(F)F)c3)n2)cc1 [Compound 28],"Plant response rating, Johnsongrass",[1]; [11],5
same,"Plant response rating, Johnsongrass",[1]; [12],5
same,"Plant response rating, Johnsongrass",[1]; [13],5
same,"Plant response rating, Johnsongrass",[1]; [14],10
same,"Plant response rating, Galium",[2]; [11],40
same,"Plant response rating, Galium",[2]; [12],55
same,"Plant response rating, Galium",[2]; [13],70
same,"Plant response rating, Galium",[2]; [14],80
same,"Plant response rating, Velvetleaf",[3]; [11],20
same,"Plant response rating, Velvetleaf",[3]; [12],25
same,"Plant response rating, Velvetleaf",[3]; [13],35
same,"Plant response rating, Velvetleaf",[3]; [14],50
same,"Plant response rating, Crabgrass, Large",[4]; [11],10
same,"Plant response rating, Crabgrass, Large",[4]; [12],15
same,"Plant response rating, Crabgrass, Large",[4]; [13],20
same,"Plant response rating, Crabgrass, Large",[4]; [14],25
same,"Plant response rating, Foxtail, Giant",[5]; [11],35
same,"Plant response rating, Foxtail, Giant",[5]; [12],35
same,"Plant response rating, Foxtail, Giant",[5]; [13],35
same,"Plant response rating, Foxtail, Giant",[5]; [14],50
same,"Plant response rating, Kochia",[6]; [11],40
same,"Plant response rating, Kochia",[6]; [12],65
same,"Plant response rating, Kochia",[6]; [13],75
same,"Plant response rating, Kochia",[6]; [14],95
same,"Plant response rating, Corn",[7]; [11],15
same,"Plant response rating, Corn",[7]; [12],20
same,"Plant response rating, Corn",[7]; [13],25
same,"Plant response rating, Corn",[7]; [14],25
same,"Plant response rating, Oat, Wild",[8]; [11],10
same,"Plant response rating, Oat, Wild",[8]; [12],15
same,"Plant response rating, Oat, Wild",[8]; [13],40
same,"Plant response rating, Oat, Wild",[8]; [14],70
same,"Plant response rating, Ducksalad (0 to 100 scale, 0 is no effect, 100 is complete control)",[9],95
same,"Plant response rating, Ryegrass, Italian",[10]; [11],10
same,"Plant response rating, Ryegrass, Italian",[10]; [12],25
same,"Plant response rating, Ryegrass, Italian",[10]; [13],25
same,"Plant response rating, Ryegrass, Italian",[10]; [14],30
